Test systems include KM12 colon; A549 NSCLC; OVCAR-4 ovarian; NCI-H23 lung; SK-MEL-2 melanoma; HCT-116 colon; SK-MEL-5 melanoma; ACHN renal; 786-0 renal; SNB-75 CNS; NCI-H226 lung; HCC-2998 colon; UO-31 renal; MOLT-4 leukemia; A498 renal; SF-268 CNS; HCT-15 colon.
Holding throughout (experiment): DTP human tumour cell line panel, 48 h

Structures are written as SMILES.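 Assay format: 96-well plates, 48-hour exposure. TGI denotes the concentration required for complete inhibition of growth.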

Results on 8 molecules are retold here after PubChem BioAssay (NCI).

Turning to `CCc1n[nH]c(=S)n1/N=C\c1ccc(-c2ccccc2Cl)o1`, the TGI in the test on KM12 colon was more than 100 µM; in the test with A549 NSCLC, more than 100 µM; with OVCAR-4 ovarian, more than 100 µM; in the test with NCI-H23 lung, 82 µM; in the test on SK-MEL-2 melanoma, 98 µM; with HCT-116 colon, 66.6 µM. Moreover, the TGI in the test with SK-MEL-5 melanoma was 31.2 µM; in the test with ACHN renal, more than 100 µM; with 786-0 renal, 86.6 µM; in the test on SNB-75 CNS it was more than 100 µM; in the test on NCI-H226 lung, 41.6 µM; with HCC-2998 colon, 83.3 µM. Also, the TGI with UO-31 renal is more than 100 µM; in the test on MOLT-4 leukemia, 45.6 µM; in the test on A498 renal it was more than 100 µM; with SF-268 CNS, more than 100 µM; in the test with HCT-15 colon it was 83.3 µM.

With `N#Cc1c(-c2ccc(Cl)cc2)cc(-c2ccc(Nc3ccnc4cc(C(F)(F)F)ccc34)cc2)[nH]c1=O`, the TGI was more than 100 µM with KM12 colon; more than 100 µM with A549 NSCLC; 24.2 µM with OVCAR-4 ovarian; more than 100 µM with NCI-H23 lung; more than 100 µM with SK-MEL-2 melanoma; more than 44 µM with HCT-116 colon. In addition, the TGI is more than 53.4 µM in the test with SK-MEL-5 melanoma; more than 100 µM in the test with ACHN renal; 24.9 µM in the test with 786-0 renal; more than 50 µM in the test with SNB-75 CNS; more than 100 µM with NCI-H226 lung; more than 100 µM with HCC-2998 colon. Further, the TGI is 20.7 µM with MOLT-4 leukemia, more than 89.6 µM in the test on A498 renal, more than 100 µM with SF-268 CNS and more than 100 µM in the test with HCT-15 colon.

As for `COc1ccc2c(c1)c(=O)c1ccccc1n2/C=C/C(=O)O`, the TGI in the test on KM12 colon, in the test on A549 NSCLC, with OVCAR-4 ovarian, in the test on NCI-H23 lung, in the test with SK-MEL-2 melanoma and in the test with HCT-116 colon was more than 100 µM each time. For the same molecule, the TGI in the test on SK-MEL-5 melanoma, in the test on ACHN renal, in the test on 786-0 renal, in the test with SNB-75 CNS, in the test on NCI-H226 lung and in the test on HCC-2998 colon was more than 100 µM each time. In addition, the TGI in the test with UO-31 renal, in the test on MOLT-4 leukemia, in the test on A498 renal, in the test on SF-268 CNS and with HCT-15 colon was more than 100 µM in each case.

As for `Nc1ccccc1CCCC(=O)O`, the concentration for total growth inhibition (TGI) in the test with KM12 colon, in the test with A549 NSCLC, with OVCAR-4 ovarian, with NCI-H23 lung, with SK-MEL-2 melanoma and in the test on HCT-116 colon was more than 100 µM in each case. In addition, the TGI with SK-MEL-5 melanoma, in the test with ACHN renal, with 786-0 renal, in the test with SNB-75 CNS, with NCI-H226 lung and in the test with HCC-2998 colon was more than 100 µM in each case. Besides, the TGI in the test with UO-31 renal, with MOLT-4 leukemia, in the test on A498 renal, with SF-268 CNS and with HCT-15 colon was more than 100 µM in each case.

As for `COc1ccccc1C1SCC(=O)N1c1ccc(-n2c(-c3ccccc3)nc3ccccc3c2=O)cc1` (stereo not given), the TGI in the test on KM12 colon was more than 100 µM; in the test with A549 NSCLC, more than 100 µM; in the test on OVCAR-4 ovarian, 56.7 µM; in the test with NCI-H23 lung, more than 100 µM; in the test on SK-MEL-2 melanoma it was more than 100 µM; in the test on HCT-116 colon, more than 100 µM. In addition, the TGI is more than 100 µM in the test with SK-MEL-5 melanoma; more than 100 µM in the test on ACHN renal; more than 100 µM in the test with 786-0 renal; 43.1 µM with SNB-75 CNS; more than 100 µM with NCI-H226 lung; more than 100 µM in the test on HCC-2998 colon. Moreover, the TGI in the test on UO-31 renal, in the test on MOLT-4 leukemia, with A498 renal, with SF-268 CNS and in the test on HCT-15 colon was more than 100 µM each time.

As for `O=C1/C(=C/c2cccnc2)C(n2cccc2)c2c(Br)sc(Br)c21` (stereo not given), the TGI was 8.45 µM in the test on KM12 colon; 32.5 µM in the test with A549 NSCLC; 3.83 µM in the test with OVCAR-4 ovarian; 9.18 µM in the test on NCI-H23 lung; 4.63 µM in the test with SK-MEL-2 melanoma; 4.97 µM in the test on HCT-116 colon. Further, the total growth inhibition concentration (TGI) with SK-MEL-5 melanoma is 21.5 µM; in the test with ACHN renal, 7.69 µM; in the test on 786-0 renal it was 6.17 µM; with SNB-75 CNS it was 3.67 µM; in the test with NCI-H226 lung, more than 100 µM; with HCC-2998 colon it was 2.41 µM. Moreover, the TGI in the test with UO-31 renal came to 3.43 µM; in the test with MOLT-4 leukemia, 5.34 µM; in the test on A498 renal, 30.4 µM; in the test with SF-268 CNS, 4.3 µM; in the test with HCT-15 colon, 4.96 µM.

For `CCOc1ccc(N=NC2C(=O)N(C(=O)CC(=O)Nc3ccccc3OC)N=C2C)cc1` (stereo not given), the TGI in the test with KM12 colon is more than 100 µM; in the test with A549 NSCLC, more than 100 µM; in the test on OVCAR-4 ovarian, more than 100 µM; with NCI-H23 lung, more than 100 µM; in the test on SK-MEL-2 melanoma, more than 58.7 µM; in the test with HCT-116 colon, more than 100 µM. Moreover, the TGI in the test with SK-MEL-5 melanoma is more than 100 µM; in the test on ACHN renal, more than 100 µM; in the test on 786-0 renal, more than 57.3 µM; with SNB-75 CNS, 23.6 µM; in the test with NCI-H226 lung, more than 100 µM; with HCC-2998 colon it was more than 60.3 µM. Further, the concentration for total growth inhibition (TGI) with UO-31 renal is more than 100 µM; with MOLT-4 leukemia, more than 100 µM; with A498 renal it was more than 31.6 µM; in the test on SF-268 CNS, 97 µM; in the test with HCT-15 colon it was more than 100 µM.

On to `CC1=NN(c2nc(N)nc(CCl)n2)CC1`, for which the TGI was 55.3 µM with KM12 colon; more than 100 µM with A549 NSCLC; 32.2 µM in the test on OVCAR-4 ovarian; 41.2 µM in the test with NCI-H23 lung; more than 100 µM in the test on SK-MEL-2 melanoma; 87.4 µM in the test on HCT-116 colon. The TGI in the test on SK-MEL-5 melanoma is 32.2 µM; in the test on ACHN renal, 38.5 µM; with 786-0 renal it was 23 µM; in the test on SNB-75 CNS it was 74.1 µM; in the test on NCI-H226 lung it was more than 100 µM; in the test with HCC-2998 colon, more than 100 µM. In addition, the TGI is 20.5 µM with UO-31 renal; 68.9 µM with MOLT-4 leukemia; more than 100 µM in the test with A498 renal; more than 100 µM in the test with SF-268 CNS; 43.6 µM in the test on HCT-15 colon.
